Legend:
[1] = Mutagenicity in Salmonella typhimurium TA100 assessed as mutagenic index ratio at 50 ug per plate incubated for 90 mins by AMES test; assay type: toxicity, Salmonella enterica subsp. enterica serovar Typhimurium; conditions: in vivo, 1.5 h, dose 50 µg
[2] = Cytotoxicity against monkey LLC-MK2 cells incubated for 72 hrs by MTT assay; assay type: toxicity, cell-based, Macaca mulatta; conditions: rhesus monkey
[3] = Mutagenicity in Salmonella typhimurium TA102 assessed as mutagenic index ratio at 50 ug per plate incubated for 90 mins in presence of S9 fraction by AMES test; assay type: toxicity, subcellular, Salmonella enterica subsp. enterica serovar Typhimurium; conditions: s9, 1.5 h, dose 50 µg
[4] = Mutagenicity in Salmonella typhimurium TA98 assessed as mutagenic index ratio at 50 ug per plate incubated for 90 mins in presence of S9 fraction by AMES test; assay type: toxicity, subcellular, Salmonella enterica subsp. enterica serovar Typhimurium; conditions: s9, 1.5 h, dose 50 µg
[5] = Mutagenicity in Salmonella typhimurium TA102 assessed as number of revertant colonies at 5000 ug per plate incubated for 90 mins in presence of S9 fraction by AMES test (reference value: 130.00 +/- 6.93); assay type: toxicity, subcellular, Salmonella enterica subsp. enterica serovar Typhimurium; conditions: s9, 1.5 h, dose 5000 µg
[6] = Mutagenicity in Salmonella typhimurium TA102 assessed as mutagenic index ratio at 5000 ug per plate incubated for 90 mins by AMES test; assay type: toxicity, Salmonella enterica subsp. enterica serovar Typhimurium; conditions: in vivo, 1.5 h, dose 5000 µg
[7] = Mutagenicity in Salmonella typhimurium TA100 assessed as number of revertant colonies at 500 ug per plate incubated for 90 mins by AMES test (reference value: 88.00 +/- 2.65); assay type: toxicity, Salmonella enterica subsp. enterica serovar Typhimurium; conditions: in vivo, 1.5 h, dose 500 µg
[8] = Mutagenicity in Salmonella typhimurium TA100 assessed as number of revertant colonies at 1500 ug per plate incubated for 90 mins in presence of S9 fraction by AMES test (reference value: 122.67 +/- 5.03); assay type: toxicity, subcellular, Salmonella enterica subsp. enterica serovar Typhimurium; conditions: s9, 1.5 h, dose 1500 µg
[9] = Mutagenicity in Salmonella typhimurium TA102 assessed as mutagenic index ratio at 150 ug per plate incubated for 90 mins by AMES test; assay type: toxicity, Salmonella enterica subsp. enterica serovar Typhimurium; conditions: in vivo, 1.5 h, dose 150 µg
[10] = Mutagenicity in Salmonella typhimurium TA100 assessed as mutagenic index ratio at 500 ug per plate incubated for 90 mins in presence of S9 fraction by AMES test; assay type: toxicity, subcellular, Salmonella enterica subsp. enterica serovar Typhimurium; conditions: s9, 1.5 h, dose 500 µg
[11] = Mutagenicity in Salmonella typhimurium TA100 assessed as mutagenic index ratio at 1500 ug per plate incubated for 90 mins by AMES test; assay type: toxicity, Salmonella enterica subsp. enterica serovar Typhimurium; conditions: in vivo, 1.5 h, dose 1500 µg
[12] = Mutagenicity in Salmonella typhimurium TA100 assessed as number of revertant colonies at 5000 ug per plate incubated for 90 mins in presence of S9 fraction by AMES test (reference value: 122.67 +/- 5.03); assay type: toxicity, subcellular, Salmonella enterica subsp. enterica serovar Typhimurium; conditions: s9, 1.5 h, dose 5000 µg
[13] = Mutagenicity in Salmonella typhimurium TA100 assessed as mutagenic index ratio at 150 ug per plate incubated for 90 mins by AMES test; assay type: toxicity, Salmonella enterica subsp. enterica serovar Typhimurium; conditions: in vivo, 1.5 h, dose 150 µg
[14] = Mutagenicity in Salmonella typhimurium TA100 assessed as number of revertant colonies at 1500 ug per plate incubated for 90 mins by AMES test (reference value: 88.00 +/- 2.65); assay type: toxicity, Salmonella enterica subsp. enterica serovar Typhimurium; conditions: in vivo, 1.5 h, dose 1500 µg
[15] = Mutagenicity in Salmonella typhimurium TA100 assessed as mutagenic index ratio at 1500 ug per plate incubated for 90 mins in presence of S9 fraction by AMES test; assay type: toxicity, subcellular, Salmonella enterica subsp. enterica serovar Typhimurium; conditions: s9, 1.5 h, dose 1500 µg
[16] = Mutagenicity in Salmonella typhimurium TA98 assessed as number of revertant colonies at 500 ug per plate incubated for 90 mins in presence of S9 fraction by AMES test (reference value: 21.00 +/- 1.00); assay type: toxicity, subcellular, Salmonella enterica subsp. enterica serovar Typhimurium; conditions: s9, 1.5 h, dose 500 µg
[17] = Selectivity index, ratio of CC50 for cytotoxicity against monkey LLC-MK2 cells to IC50 for antitrypanosomal activity against Trypanosoma cruzi Tulahuen amastigotes transfected with Escherichia coli beta-galactosidase LacZ gene infected in monkey LLC-MK2 cells; assay type: toxicity, cell-based; conditions: read-out: Ratio CC50/IC50
[18] = Substrate activity at Trypanosoma cruzi type I nitro reductase assessed as reduction in NADH incubated for 120 sec by spectrophotometric analysis
[19] = Mutagenicity in Salmonella typhimurium TA100 assessed as number of revertant colonies at 150 ug per plate incubated for 90 mins by AMES test (reference value: 88.00 +/- 2.65); assay type: toxicity, Salmonella enterica subsp. enterica serovar Typhimurium; conditions: in vivo, 1.5 h, dose 150 µg
[20] = Mutagenicity in Salmonella typhimurium TA100 assessed as number of revertant colonies at 500 ug per plate incubated for 90 mins in presence of S9 fraction by AMES test (reference value: 122.67 +/- 5.03); assay type: toxicity, subcellular, Salmonella enterica subsp. enterica serovar Typhimurium; conditions: s9, 1.5 h, dose 500 µg
[21] = Mutagenicity in Salmonella typhimurium TA102 assessed as mutagenic index ratio at 500 ug per plate incubated for 90 mins by AMES test; assay type: toxicity, Salmonella enterica subsp. enterica serovar Typhimurium; conditions: in vivo, 1.5 h, dose 500 µg
[22] = Mutagenicity in Salmonella typhimurium TA100 assessed as mutagenic index ratio at 5000 ug per plate incubated for 90 mins in presence of S9 fraction by AMES test; assay type: toxicity, subcellular, Salmonella enterica subsp. enterica serovar Typhimurium; conditions: s9, 1.5 h, dose 5000 µg
[23] = Mutagenicity in Salmonella typhimurium TA98 assessed as mutagenic index ratio at 150 ug per plate incubated for 90 mins in presence of S9 fraction by AMES test; assay type: toxicity, subcellular, Salmonella enterica subsp. enterica serovar Typhimurium; conditions: s9, 1.5 h, dose 150 µg
[24] = system: Leishmania amazonensis; assay: Antileishmanial activity against Leishmania amazonensis IFLA/BR/1967/PH8 amastigotes infected in murine peritoneal macrophages incubated for 24 hrs by Giemsa staining based analysis; assay type: functional, organism-based; conditions: IFLA/BR/1967/PH8, Peritoneal macrophage
[25] = Mutagenicity in Salmonella typhimurium TA100 assessed as mutagenic index ratio at 500 ug per plate incubated for 90 mins by AMES test; assay type: toxicity, Salmonella enterica subsp. enterica serovar Typhimurium; conditions: in vivo, 1.5 h, dose 500 µg
[26] = Mutagenicity in Salmonella typhimurium TA102 assessed as mutagenic index ratio at 500 ug per plate incubated for 90 mins in presence of S9 fraction by AMES test; assay type: toxicity, subcellular, Salmonella enterica subsp. enterica serovar Typhimurium; conditions: s9, 1.5 h, dose 500 µg
[27] = Mutagenicity in Salmonella typhimurium TA100 assessed as number of revertant colonies at 50 ug per plate incubated for 90 mins in presence of S9 fraction by AMES test (reference value: 122.67 +/- 5.03); assay type: toxicity, subcellular, Salmonella enterica subsp. enterica serovar Typhimurium; conditions: s9, 1.5 h, dose 50 µg
[28] = Mutagenicity in Salmonella typhimurium TA98 assessed as mutagenic index ratio at 1500 ug per plate incubated for 90 mins in presence of S9 fraction by AMES test; assay type: toxicity, subcellular, Salmonella enterica subsp. enterica serovar Typhimurium; conditions: s9, 1.5 h, dose 1500 µg
[29] = Mutagenicity in Salmonella typhimurium TA102 assessed as number of revertant colonies at 150 ug per plate incubated for 90 mins by AMES test (reference value: 110.67 +/- 20.15); assay type: toxicity, Salmonella enterica subsp. enterica serovar Typhimurium; conditions: in vivo, 1.5 h, dose 150 µg
[30] = Mutagenicity in Salmonella typhimurium TA100 assessed as mutagenic index ratio at 50 ug per plate incubated for 90 mins in presence of S9 fraction by AMES test; assay type: toxicity, subcellular, Salmonella enterica subsp. enterica serovar Typhimurium; conditions: s9, 1.5 h, dose 50 µg
[31] = system: Trypanosoma cruzi; assay: Antitrypanosomal activity against Trypanosoma cruzi Tulahuen amastigotes transfected with Escherichia coli beta-galactosidase LacZ gene infected in monkey LLC-MK2 cells assessed as inhibition of amastigotes growth incubated for 72 hrs by absorbance based microplate reader analysis; assay type: functional, organism-based; conditions: LLC-MK2, 72 h
[32] = Mutagenicity in Salmonella typhimurium TA98 assessed as number of revertant colonies at 1500 ug per plate incubated for 90 mins in presence of S9 fraction by AMES test (reference value: 21.00 +/- 1.00); assay type: toxicity, subcellular, Salmonella enterica subsp. enterica serovar Typhimurium; conditions: s9, 1.5 h, dose 1500 µg
[33] = Mutagenicity in Salmonella typhimurium TA102 assessed as number of revertant colonies at 50 ug per plate incubated for 90 mins in presence of S9 fraction by AMES test (reference value: 130.00 +/- 6.93); assay type: toxicity, subcellular, Salmonella enterica subsp. enterica serovar Typhimurium; conditions: s9, 1.5 h, dose 50 µg

O=[N+]([O-])c1ncn(Cc2cn(-c3ccc(OC(F)(F)F)cc3)nn2)n1
Ratio [1]: 1.1
CC50 at 72 h [2]: > 50 µM
Ratio [3]: 0.2
Ratio [4]: 1
Activity [5]: 131
Ratio [6]: 1.2
Activity [7]: 83
Activity [8]: 98.33
Ratio [9]: 1.4
Ratio [10]: 1
Ratio [11]: 0.9
Activity [12]: 47
Ratio [13]: 1
Activity [14]: 81
Ratio [15]: 0.8
Activity [16]: 23.33
selectivity ratio [17]: > 556
pIC50 [18]: 7.04
Activity [19]: 96
Activity [20]: 129
Ratio [21]: 1.4
Ratio [22]: 0.3
Ratio [23]: 1.1
IC50 [24]: 4.7 µM
Ratio [25]: 0.9
Ratio [26]: 1.4
Activity [27]: 121.33
Ratio [28]: 1
Activity [29]: 159.33
Ratio [30]: 0.9
IC50 [31]: 0.09 µM
Activity [32]: 22
Activity [33]: 162.67

— ChEMBL document CHEMBL5528040, “Design and Synthesis of Novel 3-Nitro-1H-1,2,4-triazole-1,2,3-triazole-1,4-disubstituted Analogs as Promising Antitrypanosomatid Agents: Evaluation of In Vitro Activity against Chagas Disease and Leishmaniasis” (J Med Chem, 2024)
